Laboratory results taken from US7875297B2, “Method for treating menorrhagia” (Ablation Products LLC, priority 2003, dated 2011).

Test system: beef muscle tissue (fillet mignon)
Assay: Tissue necrosis with AgNO3 bearing beads placed on the surface of beef muscle tissue
Excerpt: The degree of necrosis was rated as follows: slight visible pitting of the tissue surface (+); moderate pitting of tissue surface with slight blackening of the tissue (++); significant pitting with moderate blackening of the tissue (+++); severe pitting with complete blackening of the tissue ([…]+); and severe pitting with complete blackening of the tissue, spreading beyond the point of contact (+++++).

In the case of `O=[N+]([O-])[O-].[Ag+]` [AgNO3 Crystal, silver nitrate], the “Tissue Necrosis (degree of necrosis of the tissue under each bead)” value (from here on “Tissue Necrosis”) (Time 5 minutes) is reported as “+ + +”, the “Tissue Necrosis” value (Time 10 minutes) is reported as “+ + + +” and the “Tissue Necrosis” value (Time 15 minutes) is reported as “+ + + + +”.
